This is an account of results in article PMC12005470, “Effects of Cholesterol on the Breast Cancer Resistance Protein: Studies through the Synthesis and Biological Evaluation of Chemical Tools” (Chemmedchem, 2025).

The target in series [1] is T1, breast cancer resistance protein (BCRP/ABCG2) (Homo sapiens, UniProt Q9UNQ0).
T1 sequence (Q9UNQ0 1-655): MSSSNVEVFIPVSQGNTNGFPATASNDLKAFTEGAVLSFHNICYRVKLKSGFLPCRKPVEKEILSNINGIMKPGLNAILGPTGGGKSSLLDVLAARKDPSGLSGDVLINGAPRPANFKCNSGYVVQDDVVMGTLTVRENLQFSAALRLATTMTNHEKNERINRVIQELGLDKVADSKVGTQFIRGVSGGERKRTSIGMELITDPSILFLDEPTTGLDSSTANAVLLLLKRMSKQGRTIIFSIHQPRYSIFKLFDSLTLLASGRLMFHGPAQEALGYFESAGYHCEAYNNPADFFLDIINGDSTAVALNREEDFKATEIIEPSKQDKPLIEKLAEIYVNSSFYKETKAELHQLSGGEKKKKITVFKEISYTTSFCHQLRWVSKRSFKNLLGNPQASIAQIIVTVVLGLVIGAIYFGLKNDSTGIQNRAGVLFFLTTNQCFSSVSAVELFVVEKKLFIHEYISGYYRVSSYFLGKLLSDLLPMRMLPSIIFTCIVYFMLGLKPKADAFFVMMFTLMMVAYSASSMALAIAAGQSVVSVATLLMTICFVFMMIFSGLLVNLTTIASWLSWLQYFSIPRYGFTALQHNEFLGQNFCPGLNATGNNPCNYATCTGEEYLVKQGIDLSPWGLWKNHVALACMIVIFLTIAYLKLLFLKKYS
The series is described as follows: Ko143-sensitive accumulation in HEK293-ABCG2 cells, confocal microscopy; efflux by flow cytometry. It counts as cell-based. Background: Flow cytometry measures light scatter and fluorescence of single cells or particles in a stream.

Series [2] deals with T1, breast cancer resistance protein (BCRP/ABCG2). The series can be described thus: cell-based.

As to `C=Cc1c(C)c2cc3nc(c4c5[nH]c(cc6nc(cc1[nH]2)C(C)=C6CC)c(C)c5C(=O)[C@@H]4C(=O)OC)[C@@H](CCC(=O)O)[C@@H]3C` [compound 2, pheophorbide a], the “Ko143-sensitive accumulation in HEK293-ABCG2 cells, confocal microscopy; efflux” value in series [1] was “ABCG2 inhibition by Ko143 caused an intracellular accumulation of hoechst and pheophorbide a (Figure S1)”.
In the case of `O=C(/C=C/c1ccccc1)c1ccccc1` [compound 5, Chalcone (5)], inhibition in series [2] was half-maximal at 2210 ± 500 nM (IC50).
